# Measurements as given in US10336739B2, “4-hydroxy-3-(heteroaryl)pyridine-2-one APJ agonists” (BRISTOL-MYERS SQUIBB COMPANY, priority 2015, dated 2019).
# pEC50: −log10 of the molar value.
# Biological target: human APJ receptor (Homo sapiens (Human), UniProt P35414)
# Assay: Intracellular cAMP accumulation assay (APJ hcAMP, HTRF)
# Assay type: cell-based
# Conditions: HEK293 cells stably expressing human APJ receptor; inhibition of forskolin-mediated cAMP production; read-out: Human APJ cAMP EC50 Potency range
# Outline: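 cAMP inhibition was quantified by HTRF against a cAMP standard curve, with EC50 fitted to a variable-slope sigmoidal curve. Compounds acted on 5,000 APJ-stable HEK293 cells for 30 minutes at room temperature alongside 2 μM forskolin and […] IBMX. Detection reagents were incubated 60 min.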
# Chain of human APJ receptor (P35414 whole entry): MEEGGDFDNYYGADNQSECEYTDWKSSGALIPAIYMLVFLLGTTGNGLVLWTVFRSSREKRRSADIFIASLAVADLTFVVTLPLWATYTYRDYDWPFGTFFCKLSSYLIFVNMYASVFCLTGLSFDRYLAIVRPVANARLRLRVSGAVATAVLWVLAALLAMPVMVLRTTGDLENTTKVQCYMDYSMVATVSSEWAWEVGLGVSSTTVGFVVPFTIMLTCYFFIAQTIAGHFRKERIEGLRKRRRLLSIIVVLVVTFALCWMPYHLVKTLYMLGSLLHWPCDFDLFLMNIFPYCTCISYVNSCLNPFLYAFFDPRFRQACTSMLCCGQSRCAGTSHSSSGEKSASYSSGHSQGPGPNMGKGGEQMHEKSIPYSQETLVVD
row,pEC50,Compound
1,7.00 to 8.00,"CCOCc1nc(O)c(-c2nnc(Cc3ccc(Cl)cc3)o2)c(O)c1-c1c(O)cccc1O [Example 229, 3-{5-[(4-chlorophenyl)methyl]-1,3,4-oxadiazol-2-yl}-5-(2,6-dihydroxyphenyl)-6-(ethoxymethyl)pyridine-2,4-diol]"
2,8.00 to 11.00,"CCNCc1[nH]c(=O)c(-c2nnc(Cc3ccc(Cl)cn3)o2)c(O)c1-c1c(OC)cccc1OC [Example 230, 3-{5-[(5-chloropyridin-2-yl)methyl]-1,3,4-oxadiazol-2-yl}-5-(2,6-dimethoxyphenyl)-6-[(ethylamino)methyl]pyridine-2,4-diol]"
3,7.00 to 8.00,"CCOCc1nc(O)c(-c2nnc(Cc3noc4ccccc34)s2)c(O)c1-c1c(OC)cccc1OC [Example 231, 3-{5-[(1,2-benzoxazol-3-yl)methyl]-1,3,4-thiadiazol-2-yl}-5-(2,6-dimethoxyphenyl)-6-(ethoxymethyl)pyridine-2,4-diol]"

# Same assay, conditions: HEK293 cells stably expressing human APJ receptor; inhibition of forskolin-mediated cAMP production; read-out: hAPJ cAMP EC50 (nM) Potency range
row,Compound,EC50 [nM]
1,"COc1cccc(OC)c1-c1c(C2CCCC2)nc(O)c(-c2nnc(Cc3ccc(Cl)cn3)s2)c1O [Example 233, 3-{5-[(5-chloropyridin-2-yl)methyl]-1,3,4-thiadiazol-2-yl}-6-cyclopentyl-5-(2,6-dimethoxyphenyl) pyridine-2,4-diol]",10 to 100
2,"CCOCc1nc(O)c(-c2nnc(CNC(=O)c3ccccn3)s2)c(O)c1-c1c(OC)cccc1OC [Example 235, N-({5-[5-(2,6-dimethoxyphenyl)-6-(ethoxymethyl)-2,4-dihydroxypyridin-3-yl]-1,3,4-thiadiazol-2-yl}methyl) pyridine-2-carboxamide]",10 to 100
3,"COc1cccc(OC)c1-c1c(C2CCCC2)[nH]c(=O)c(-c2nnc(Cc3ccc(Cl)cc3)o2)c1O [Example 239, 3-{5-[(4-chlorophenyl)methyl]-1,3,4-oxadiazol-2-yl}-6-cyclopentyl-5-(2,6-dimethoxyphenyl) pyridine-2,4-diol]",0.01 to 10
4,"CCCCc1nc(O)c(-c2nnc(CNC(=O)c3ccccc3)o2)c(O)c1-c1cc(OC)ccc1OC [Example 246, N-({5-[6-butyl-5-(2,5-dimethoxyphenyl)-2,4-dihydroxy-pyridin-3-yl]-1,3,4-oxadiazol-2-yl}methyl) benzamide]",0.01 to 10
5,"CCCCc1nc(O)c(-c2nnc(CNC(=O)c3ccccc3)o2)c(O)c1-c1cc(C(C)C)ccc1OC [Example 247, N-[(5-{6-butyl-2,4-dihydroxy-5-[2-methoxy-5-(propan-2-yl)phenyl]pyridin-3-yl}-1,3,4-oxadiazol-2-yl)methyl] benzamide]",0.01 to 10
6,"CCOCc1nc(O)c(-c2nnc(Cc3noc4ccccc34)o2)c(O)c1-c1ccccc1OC [Example 248, 3-{5-[(1,2-benzoxazol-3-yl)methyl]-1,3,4-oxadiazol-2-yl}-6-(ethoxymethyl)-5-(2-methoxyphenyl) pyridine-2,4-diol]",0.01 to 10
7,"CCOCc1nc(O)c(-c2nnc(Cc3ccc(Cl)cc3)o2)c(O)c1-c1ccccc1OC [Example 249, 3-{5-[(4-chlorophenyl)methyl]-1,3,4-oxadiazol-2-yl}-6-(ethoxymethyl)-5-(2-methoxyphenyl) pyridine-2,4-diol]",0.01 to 10
8,"CCCCc1nc(O)c(-c2nnc(CNC(=O)c3ccccc3)o2)c(O)c1-c1cccc(OC)c1OC [Example 250, N-({5-[6-butyl-5-{2,3-dimethoxyphenyl)-2,4-dihydroxy-pyridin-3-yl]-1,3,4-oxadiazol-2-yl}methyl) benzamide]",0.01 to 10
9,"CCOCc1nc(O)c(-c2nnc(CNC(=O)c3ccccc3)o2)c(O)c1-c1ccccc1OC [Example 251, N-({5-[6-(ethoxymethyl)-2,4-dihydroxy-5-(2-methoxyphenyl)-pyridin-3-yl]-1,3,4-oxadiazol-2-yl}methyl) benzamide]",0.01 to 10
10,"CCCCc1nc(O)c(-c2nnc(CC(=O)Nc3cccnc3)o2)c(O)c1-c1c(OC)cccc1OC [Example 252, 2-{5-[6-butyl-5-(2,6-dimethoxyphenyl)-2,4-dihydroxy-pyridin-3-yl]-1,3,4-oxadiazol-2-yl}-N-(pyridin-3-yl)acetamide]",0.01 to 10
11,"CCCCc1nc(O)c(-c2nnc(CC(=O)NCc3nc4ccccc4s3)o2)c(O)c1-c1c(OC)cccc1OC [Example 254, N-[(1,3-benzothiazol-2-yl)methyl]-2-{5-[6-butyl-5-(2,6-dimethoxyphenyl)-2,4-dihydroxypyridin-3-yl]-1,3,4-oxadiazol-2-yl}acetamide]",0.01 to 10
12,"CCCCc1nc(O)c(-c2nnc(CC(=O)NCc3cccnc3)o2)c(O)c1-c1c(OC)cccc1OC [Example 255, 2-{5-[6-butyl-5-(2,6-dimethoxyphenyl)-2,4-dihydroxy-pyridin-3-yl]-1,3,4-oxadiazol-2-yl}-N-[(pyridin-3-yl)methyl] acetamide]",0.01 to 10
13,"CCCCc1nc(O)c(-c2nnc(CC(=O)NCCc3ccc(S(N)(=O)=O)cc3)o2)c(O)c1-c1c(OC)cccc1OC [Example 257, 2-{5-[6-butyl-5-(2,6-dimethoxyphenyl)-2,4-dihydroxy-pyridin-3-yl]-1,3,4-oxadiazol-2-yl}-N-[2-(4-sulfamoylphenyl)ethyl]acetamide]",0.01 to 10
14,"CCCCc1nc(O)c(-c2nnc(CC(=O)NCCc3ccccc3Cl)o2)c(O)c1-c1c(OC)cccc1OC [Example 258, 2-{5-[6-butyl-5-(2,6-dimethoxyphenyl)-2,4-dihydroxy-pyridin-3-yl]-1,3,4-oxadiazol-2-yl}-N-[2-(2-chlorophenyl)ethyl]acetamide]",0.01 to 10

# Now from value to compound:
row,EC50 [nM],Compound
1,0.01 to 10,"CCOCc1nc(O)c(-c2nnc(Cc3ccc(Cl)cn3)s2)c(O)c1-c1c(OC)cccc1OC [Example 232, 3-{5-[(5-chloropyridin-2-yl)methyl]-1,3,4-thiadiazol-2-yl}-5-(2,6-dimethoxyphenyl)-6-(ethoxymethyl) pyridine-2,4-diol]"
2,10 to 100,"CCOCc1nc(O)c(-c2nnc(Cc3ccc(Cl)cc3)s2)c(O)c1-c1c(OC)cccc1OC [Example 234, 3-{5-[(4-chlorophenyl)-methyl]-1,3,4-thiadiazol-2-yl}-5-(2,6-dimethoxyphenyl)-6-(ethoxymethyl)-pyridine-2,4-diol]"
3,0.01 to 10,"CCOCc1nc(O)c(-c2nnc(Cc3ncc(Cl)cc3F)o2)c(O)c1-c1c(OC)cccc1OC [Example 237, 3-{5-[(5-chloro-3-fluoropyridin-2-yl)methyl]-1,3,4-oxadiazol-2-yl}-5-(2,6-dimethoxyphenyl)-6-(ethoxymethyl) pyridine-2,4-diol]"
4,0.01 to 10,"COc1cccc(OC)c1-c1c(C2CCCC2)nc(O)c(-c2nnc(Cc3ccc(Cl)cn3)o2)c1O [Example 238, 3-{5-[(5-chloropyridin-2-yl)methyl]-1,3,4-oxadiazol-2-yl}-6-cyclopentyl-5-(2,6-dimethoxyphenyl) pyridine-2,4-diol]"
5,0.01 to 10,"COCCOCc1nc(O)c(-c2nnc(Cc3ccc(Cl)cn3)o2)c(O)c1-c1c(OC)cccc1OC [Example 240, 3-{5-[(5-chloropyridin-2-yl)methyl]-1,3,4-oxadiazol-2-yl}-5-(2,6-dimethoxyphenyl)-6-[(2-methoxyethoxy)methyl] pyridine-2,4-diol]"
6,10 to 100,"COCCOCc1nc(O)c(-c2nnc(Cc3noc4ccccc34)o2)c(O)c1-c1c(OC)cccc1OC [Example 242, 3-{5-[(1,2-benzoxazol-3-yl)methyl]-1,3,4-oxadiazol-2-yl}-5-(2,6-dimethoxyphenyl)-6-[(2-methoxyethoxy)methyl]pyridine-2,4-diol]"
7,10 to 100,"CCOCc1nc(O)c(-c2nnc(CNc3ccccc3)o2)c(O)c1-c1c(OC)cccc1OC [Example 243, 5-(2,6-dimethoxyphenyl)-6-(ethoxymethyl)-3-{5-[(phenylamino)methyl]-1,3,4-oxadiazol-2-yl}pyridine-2,4-diol]"
8,10 to 100,"COCCOCc1nc(O)c(-c2nnc(Cc3ccc(Cl)cc3)o2)c(O)c1-c1c(OC)cccc1OC [Example 244, 3-{5-[(4-chlorophenyl)methyl]-1,3,4-oxadiazol-2-yl}-5-(2,6-dimethoxyphenyl)-6-[(2-methoxyethoxy)methyl]pyridine-2,4-diol]"
9,0.01 to 10,"CCOCc1nc(O)c(-c2nnc(CC(=O)Nc3nccs3)o2)c(O)c1-c1c(OC)cccc1OC [Example 253, 2-{5-[5-(2,6-dimethoxyphenyl)-6-(ethoxymethyl)-2,4-dihydroxypyridin-3-yl]-1,3,4-oxadiazol-2-yl}-N-(1,3-thiazol-2-yl)acetamide]"
10,0.01 to 10,"CCCCc1nc(O)c(-c2nnc(CC(=O)NCc3ncco3)o2)c(O)c1-c1c(OC)cccc1OC [Example 256, 2-{5-[6-butyl-5-(2,6-dimethoxyphenyl)-2,4-dihydroxypyridin-3-yl]-1,3,4-oxadiazol-2-yl}-N-[(1,3-oxazol-2-yl)methyl] acetamide]"
11,0.01 to 10,"CCCCc1nc(O)c(-c2nnc(CC(=O)NCc3cccc(Cl)c3)o2)c(O)c1-c1c(OC)cccc1OC [Example 259, 2-{5-[6-butyl-5-(2,6-dimethoxyphenyl)-2,4-dihydroxy-pyridin-3-yl]-1,3,4-oxadiazol-2-yl}-N-[(3-chlorophenyl)methyl]acetamide]"

# Same assay, conditions: HEK293 cells stably expressing human APJ receptor; inhibition of forskolin-mediated cAMP production; read-out: hAPJ cAMP EC50 Potency range
row,pEC50,Compound
1,8.00 to 11.00,"CCOCc1nc(O)c(-c2nnc(Cc3noc4cccnc34)o2)c(O)c1-c1c(OC)cccc1OC [Example 228, 5-(2,6-dimethoxyphenyl)-6-(ethoxymethyl)-3-(5-{[1,2]oxazolo[4,5-b]pyridin-3-ylmethyl}-1,3,4-oxadiazol-2-yl)pyridine-2,4-diol]"

# Same assay, conditions: hAPJ cAMP EC50 (nM) Potency range, HEK293 cells stably expressing human APJ receptor; inhibition of forskolin-mediated cAMP production
row,Compound,EC50 [nM]
1,"CCCCc1nc(O)c(-c2nnc(Cc3ncc(Cl)cc3F)o2)c(O)c1-c1c(OC)cccc1OC [Example 236, 6-butyl-3-{5-[(5-chloro-3-fluoropyridin-2-yl)methyl]-1,3,4-oxadiazol-2-yl}-5-(2,6-dimethoxyphenyl) pyridine-2,4-diol]",10 to 100
